# Patent US12077506B2, “Indane derivatives as hypoxia inducible factor-2(α) inhibitors” (priority 2019, dated 2024)
# Biological target: HIF-2α (Homo sapiens (Human), UniProt Q99814)
# Assay: VEGF ELISA Assay
# Format: cell-based
# Conditions: not given
# Procedure: The ability of the disclosed compounds to inhibit HIF-2α was measured by determining VEGF expression in 786-O cells. About 7500 786-O cells were seeded into each well of a 96-well, white, clear bottom plate (07-200-566, Fisher Scientific) with 200 ul growth medium. Four hours later, compounds were dispensed into wells by Tecan D300e digital dispenser with starting concentration of 10 uM and ½ log of dilution down to 1 nM as final concentration. Each concentration of treatment was performed in duplicate. About 20 hours later, medium was removed and fresh medium was added, followed by compounds treatment as described above. After 24 hours, cell culture medium was collected to determine VEGF concentration using an ELISA kit (R&D systems, cat #DVE00) following the manufacturer's instruction.
# The EC50 was calculated by GraphPad Prism using the dose-response-inhibition (four parameter) equation. The plate with cells was then subjected to CellTiter-Glo luminescence cell viability assay (Promega) to determine the effect of these compounds on cell numbers after the above treatment.
# Sequence of HIF-2α (Q99814 whole entry): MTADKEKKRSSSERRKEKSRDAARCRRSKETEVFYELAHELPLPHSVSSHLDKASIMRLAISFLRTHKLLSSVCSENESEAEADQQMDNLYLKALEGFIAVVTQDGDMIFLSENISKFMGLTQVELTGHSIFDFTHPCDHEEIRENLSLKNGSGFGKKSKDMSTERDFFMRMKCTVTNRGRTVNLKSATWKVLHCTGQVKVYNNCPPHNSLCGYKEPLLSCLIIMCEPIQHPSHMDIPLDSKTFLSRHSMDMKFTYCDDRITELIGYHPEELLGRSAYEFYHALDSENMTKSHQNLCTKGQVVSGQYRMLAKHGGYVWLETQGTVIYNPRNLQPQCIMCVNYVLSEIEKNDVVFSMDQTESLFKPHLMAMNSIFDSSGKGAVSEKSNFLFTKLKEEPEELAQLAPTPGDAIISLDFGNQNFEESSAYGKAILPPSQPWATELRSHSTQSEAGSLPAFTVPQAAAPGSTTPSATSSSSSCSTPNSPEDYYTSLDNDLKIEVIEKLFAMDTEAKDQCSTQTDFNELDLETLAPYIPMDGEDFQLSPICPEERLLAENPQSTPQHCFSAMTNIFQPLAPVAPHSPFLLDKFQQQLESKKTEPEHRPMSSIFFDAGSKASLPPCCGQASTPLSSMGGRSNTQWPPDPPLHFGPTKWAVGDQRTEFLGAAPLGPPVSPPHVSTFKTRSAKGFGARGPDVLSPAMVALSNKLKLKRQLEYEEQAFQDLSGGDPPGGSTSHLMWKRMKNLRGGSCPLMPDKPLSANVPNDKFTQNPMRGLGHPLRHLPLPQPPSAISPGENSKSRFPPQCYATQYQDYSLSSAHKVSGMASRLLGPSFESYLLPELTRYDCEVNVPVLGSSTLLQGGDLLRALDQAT
row,EC50 [nM],Compound
1,464,"[2H][C@]1(O)c2c(ccc(Oc3cc(F)cc(C#N)c3)c2C#N)C(F)(F)C1(F)F [I-13a, (S)-5-(3-cyano-5-fluorophenoxy)-1,1,2,2-tetrafluoro-3-hydroxy-2,3-dihydro-1H-indene-4-carbonitrile-3-d]"
2,12,"[2H][C@@]1(O)c2c(ccc(Oc3cc(F)cc(C#N)c3)c2C#N)C(F)(F)C1(F)F [I-13b, (R)-5-(3-cyano-5-fluorophenoxy)-1,1,2,2-tetrafluoro-3-hydroxy-2,3-dihydro-1H-indene-4-carbonitrile-3-d]"
3,183,"[2H]C1(O)c2c(ccc(Oc3cncc(F)c3)c2C#N)C(F)(F)C1(F)F (stereo not shown) [I-14, 1,1,2,2-tetrafluoro-5-((5-fluoropyridin-3-yl)oxy)-3-hydroxy-2,3-dihydro-1H-indene-4-carbonitrile-3-d]"

# Same assay, conditions: VEGF expression in 786-O cells, ELISA of culture medium; read-out: EC50
row,Compound,EC50 [nM]
1,"7-(difluoromethyl)-6-(3,5-difluorophenoxy)-2,2,3,3-tetrafluoro-2,3-dihydro-1H-inden-1-ol [I-4]",4
2,"N#Cc1cc(F)cc(Oc2ccc3c(c2C(F)F)C(O)C(F)(F)C3(F)F)c1 (stereo not shown) [I-1, 3-((4-(difluoromethyl)-1,1,2,2-tetrafluoro-3-hydroxy-2,3-dihydro-1H-inden-5-yl)oxy)-5-fluorobenzonitrile]",6
3,"CC1(O)c2c(ccc(Oc3cc(F)cc(C#N)c3)c2C(F)F)C(F)(F)C1(F)F (stereo not shown) [I-2, 3-((4-(difluoromethyl)-1,1,2,2-tetrafluoro-3-hydroxy-3-methyl-2,3-dihydro-1H-inden-5-yl)oxy)-5-fluorobenzonitrile]",770
4,"N#Cc1cc(F)cc(Oc2ccc3c(c2C(F)F)C(N)C(F)(F)C3(F)F)c1 (stereo not shown) [I-3, 3-((3-amino-4-(difluoromethyl)-1,1,2,2-tetrafluoro-2,3-dihydro-1H-inden-5-yl)oxy)-5-fluorobenzonitrile]",166
5,"Cc1cc(C#N)cc(Oc2ccc3c(c2C(F)F)C(O)C(F)(F)C3(F)F)c1 (stereo not shown) [I-5, 3-((4-(difluoromethyl)-1,1,2,2-tetrafluoro-3-hydroxy-2,3-dihydro-1H-inden-5-yl)oxy)-5-methylbenzonitrile]",67
6,"N#Cc1cc(Cl)cc(Oc2ccc3c(c2C(F)F)C(O)C(F)(F)C3(F)F)c1 (stereo not shown) [I-6, 3-chloro-5-((4-(difluoromethyl)-1,1,2,2-tetrafluoro-3-hydroxy-2,3-dihydro-1H-inden-5-yl)oxy)benzonitrile]",27
7,"OC1c2c(ccc(Oc3cc(F)cc(Cl)c3)c2C(F)F)C(F)(F)C1(F)F (stereo not shown) [I-7, 6-(3-chloro-5-fluorophenoxy)-7-(difluoromethyl)-2,2,3,3-tetrafluoro-2,3-dihydro-1H-inden-1-ol]",8
8,"OC1c2c(ccc(OC3CC(F)(F)C3)c2C(F)F)C(F)(F)C1(F)F (stereo not shown) [I-8, 6-(3,3-difluorocyclobutoxy)-7-(difluoromethyl)-2,2,3,3-tetrafluoro-2,3-dihydro-1H-inden-1-ol]",105
9,"N#Cc1cncc(Oc2ccc3c(c2C(F)F)C(O)C(F)(F)C3(F)F)c1 (stereo not shown) [I-9, 5-((4-(difluoromethyl)-1,1,2,2-tetrafluoro-3-hydroxy-2,3-dihydro-1H-inden-5-yl)oxy)nicotinonitrile]",147
10,"OC1c2c(ccc(Oc3cncc(F)c3)c2C(F)F)C(F)(F)C1(F)F (stereo not shown) [I-10, 7-(difluoromethyl)-2,2,3,3-tetrafluoro-6-((5-fluoropyridin-3-yl)oxy)-2,3-dihydro-1H-inden-1-ol]",54
11,"CC1(O)c2c(ccc(Oc3cc(F)cc(C#N)c3)c2C#N)C(F)(F)C1(F)F (stereo not shown) [I-15, 5-(3-cyano-5-fluorophenoxy)-1,1,2,2-tetrafluoro-3-hydroxy-3-methyl-2,3-dihydro-1H-indene-4-carbonitrile]",287
12,"CC1(O)c2c(ccc(Oc3cc(F)cc(C#N)c3)c2Br)C(F)(F)C1(F)F (stereo not shown) [I-16, 3-((4-bromo-1,1,2,2-tetrafluoro-3-hydroxy-3-methyl-2,3-dihydro-1H-inden-5-yl)oxy)-5-fluorobenzonitrile]",2070
13,"C=Cc1c(Oc2cc(F)cc(C#N)c2)ccc2c1C(C)(O)C(F)(F)C2(F)F (stereo not shown) [I-17, 3-fluoro-5-((1,1,2,2-tetrafluoro-3-hydroxy-3-methyl-4-vinyl-2,3-dihydro-1H-inden-5-yl)oxy)benzonitrile]",5770
14,"CCc1c(Oc2cc(F)cc(C#N)c2)ccc2c1C(C)(O)C(F)(F)C2(F)F (stereo not shown) [I-18, 3-((4-ethyl-1,1,2,2-tetrafluoro-3-hydroxy-3-methyl-2,3-dihydro-1H-inden-5-yl)oxy)-5-fluorobenzonitrile]",2500
15,"N#Cc1cc(F)cc(Oc2ccc3c(c2C(F)F)C(O)C(F)(F)C3F)c1 (stereo not shown) [I-19, 3-((4-(difluoromethyl)-1,2,2-trifluoro-3-hydroxy-2,3-dihydro-1H-inden-5-yl)oxy)-5-fluorobenzonitrile]",151
16,"N#Cc1cc(F)cc(Oc2ccc3c(c2C(F)F)C(O)C(F)(Cl)C3(F)F)c1 (stereo not shown) [I-20, 3-((2-chloro-4-(difluoromethyl)-1,1,2-trifluoro-3-hydroxy-2,3-dihydro-1H-inden-5-yl)oxy)-5-fluorobenzonitrile]",20
